{
  "source": "patent US20220218852A1",
  "about": "“NOVEL RADIOLABELLED CXCR4-TARGETING COMPOUNDS FOR DIAGNOSIS AND THERAPY” (PROVINCIAL HEALTH SERVICES AUTHORITY, priority 2019, published 2022)",
  "tested_on": "GRANTA519 xenograft",
  "assay": "Dosimetry, Human Extrapolated from Mouse Model, based on GRANTA519 xenograft mice",
  "type": "in vivo",
  "conditions": "Lu-177, GRANTA519 xenograft mice",
  "excerpt": "The multi-time-point organ uptake obtained from biodistribution data of ^177Lu-labeled analogs was decayed to their appropriate time-point, fitted to a mono-exponential or bi-exponential model (fit chosen based on R2 and residuals) in Python (version 3.7). The area under the curve was used to compute residence times which were multiplied by model organ mass for human (NURBS model) and mouse (25 g MOBY mouse phantom) for use in OLINDA/EXM software (Hermes Medical Solution; version 2.0) that calculated dosimetry for an average mouse (Stabin et al., J Nucl Med. 2005, 46:1023-1027; Keenan et al., J Nucl Med. 2010, 51:471-476) and extrapolated to an average human male (Segars et al., J Nucl Med. 2001, 42:7; Stabin et al., J Nucl Med. 2012, 53:1807-13).",
  "note": "Positions of bridges follow the written chain, without caps; N, C: chain ends. Non-standard residues stand in square brackets, D forms with d. Residues, ends and D or L forms follow the SMILES beside them. Groups on a side chain read outwards from the residue. *: point of attachment. DOTA = O=C(O)CN1CCN(CC(=O)O)CCN(CC(=O)*)CCN(CC(=O)O)CC1; 2Nal = N[C@@H](Cc1ccc2ccccc2c1)C(=O)O; Lys(iPr) = CC(C)NCCCC[C@H](N)C(=O)O",
  "data": [
    {"smiles": "CC(C)NCCCC[C@@H]1NC(=O)[C@H](Cc2ccc(O)cc2)NC(=O)[C@H](Cc2ccccc2)NC(=O)CC[C@H](C(=O)N[C@@H](CCCCNC(C)C)C(=O)N[C@@H](CCCCNC(=O)[C@H](CCC(=O)O)NC(=O)[C@H](CCC(=O)O)NC(=O)[C@H](CCC(=O)O)NC(=O)CN2CCN(CC(=O)O)CCN(CC(=O)O)CCN(CC(=O)O)CC2)C(N)=O)NC(=O)CNC(=O)[C@H](Cc2ccc3ccccc3c2)NC(=O)[C@@H](CCCNC(=N)N)NC1=O", "note": "[[^177Lu]Lu-BL02, metal not drawn] (FY[Lys(iPr)][dR][2Nal]G[dE][Lys(iPr)]K([Glu-Glu-Glu-DOTA])-NH2; lactam N-7)", "values": [
      {"measurement": "Absorbed Dose, Adrenals", "setting": "Adrenals", "value": 0.00757, "unit": "mGy/MBq"},
      {"measurement": "Absorbed Dose, Brain", "setting": "Brain", "value": "7.33e−05", "unit": "mGy/MBq"},
      {"measurement": "Absorbed Dose, Esophagus", "setting": "Esophagus", "value": 0.00043, "unit": "mGy/MBq"},
      {"measurement": "Absorbed Dose, Eyes", "setting": "Eyes", "value": 0.000245, "unit": "mGy/MBq"},
      {"measurement": "Absorbed Dose, Gallbladder Wall", "setting": "Gallbladder Wall", "value": 0.000863, "unit": "mGy/MBq"},
      {"measurement": "Absorbed Dose, Heart", "setting": "Heart", "value": 0.00148, "unit": "mGy/MBq"},
      {"measurement": "Absorbed Dose, Kidneys", "setting": "Kidneys", "value": 0.0311, "unit": "mGy/MBq"},
      {"measurement": "Absorbed Dose, Left colon", "setting": "Left colon", "value": 0.00141, "unit": "mGy/MBq"},
      {"measurement": "Absorbed Dose, Liver", "setting": "Liver", "value": 0.0185, "unit": "mGy/MBq"},
      {"measurement": "Absorbed Dose, Lungs", "setting": "Lungs", "value": 0.00333, "unit": "mGy/MBq"},
      {"measurement": "Absorbed Dose, Pancreas", "setting": "Pancreas", "value": 0.000976, "unit": "mGy/MBq"},
      {"measurement": "Absorbed Dose, Prostate", "setting": "Prostate", "value": 0.000284, "unit": "mGy/MBq"},
      {"measurement": "Absorbed Dose, Rectum", "setting": "Rectum", "value": 0.000761, "unit": "mGy/MBq"},
      {"measurement": "Absorbed Dose, Red Marrow", "setting": "Red Marrow", "value": 0.000343, "unit": "mGy/MBq"},
      {"measurement": "Absorbed Dose, Remainder of the Body", "setting": "Remainder of the Body", "value": 0.000952, "unit": "mGy/MBq"},
      {"measurement": "Absorbed Dose, Right colon", "setting": "Right colon", "value": 0.00095, "unit": "mGy/MBq"},
      {"measurement": "Absorbed Dose, Salivary Glands", "setting": "Salivary Glands", "value": 0.000254, "unit": "mGy/MBq"},
      {"measurement": "Absorbed Dose, Skeleton", "setting": "Skeleton", "value": 0.000444, "unit": "mGy/MBq"},
      {"measurement": "Absorbed Dose, Small Intestine", "setting": "Small Intestine", "value": 0.00131, "unit": "mGy/MBq"},
      {"measurement": "Absorbed Dose, Spleen", "setting": "Spleen", "value": 0.00859, "unit": "mGy/MBq"},
      {"measurement": "Absorbed Dose, Stomach Wall", "setting": "Stomach Wall", "value": 0.000464, "unit": "mGy/MBq"},
      {"measurement": "Absorbed Dose, Testes", "setting": "Testes", "value": 0.00245, "unit": "mGy/MBq"},
      {"measurement": "Absorbed Dose, Thymus", "setting": "Thymus", "value": 0.000336, "unit": "mGy/MBq"},
      {"measurement": "Absorbed Dose, Thyroid", "setting": "Thyroid", "value": 0.00029, "unit": "mGy/MBq"},
      {"measurement": "Absorbed Dose, Urin Blad", "setting": "Urin Blad", "value": 0.000269, "unit": "mGy/MBq"}
    ]}
  ]
}
